Data from ChEMBL document CHEMBL1201861, “Genomics of Drug Sensitity in Cancer screening data, Wellcome Trust Sanger Institute”.

Tests used:
Assay in all cases: cells
COLO-800 = type: functional, cell-based, Homo sapiens; settings: Homo sapiens, COLO-800;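 note: growth inhibition of COLO-800 cells, read out with a cell viability assay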
Description: SANGER: Inhibition of human COLO-800 cell growth in a cell viability assay.

COLO-824 = type: functional, cell-based, Homo sapiens; settings: Homo sapiens, COLO-824
Description: SANGER: Inhibition of human COLO-824 cell growth in a cell viability assay.

CW-2 = type: functional, cell-based, Homo sapiens; settings: Homo sapiens, CW-2;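 note: growth inhibition of CW-2 cells, read out by a cell viability assay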
Description: SANGER: Inhibition of human CW-2 cell growth in a cell viability assay.

Calu-6 = type: functional, cell-based, Homo sapiens; settings: Homo sapiens, Calu-6;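 note: growth of human Calu-6 cells, read out by a cell viability assay, IC50 marking inhibition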
Description: SANGER: Inhibition of human Calu-6 cell growth in a cell viability assay.

D-247MG = type: functional, cell-based; settings: Homo sapiens
Description: SANGER: Inhibition of human D-247MG cell growth in a cell viability assay.

DOHH-2 = type: functional, cell-based, Homo sapiens; settings: Homo sapiens, DOHH-2;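 note: growth inhibition of human DOHH-2 cells, read out with a cell viability assay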
Description: SANGER: Inhibition of human DOHH-2 cell growth in a cell viability assay.

DU-4475 = type: functional, cell-based, Homo sapiens; settings: Homo sapiens, DU-4475
Description: SANGER: Inhibition of human DU-4475 cell growth in a cell viability assay.

EKVX = type: functional, cell-based, Homo sapiens; settings: Homo sapiens, EKVX;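 note: growth inhibition of human EKVX cells, read out with a cell viability assay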
Description: SANGER: Inhibition of human EKVX cell growth in a cell viability assay.

EM-2 = type: functional, cell-based, Homo sapiens; settings: Homo sapiens, EM-2;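 note: growth inhibition of EM-2 cells, read out with a cell viability assay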
Description: SANGER: Inhibition of human EM-2 cell growth in a cell viability assay.

ES4 = type: functional, cell-based, Homo sapiens; settings: Homo sapiens, ES4;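 note: growth inhibition of human ES4 cells, read out by a cell viability assay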
Description: SANGER: Inhibition of human ES4 cell growth in a cell viability assay.

ES5 = type: functional, cell-based, Homo sapiens; settings: Homo sapiens, ES5;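 note: growth inhibition of human ES5 cells, read out by a cell viability assay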
Description: SANGER: Inhibition of human ES5 cell growth in a cell viability assay.

ES6 = type: functional, cell-based; settings: Homo sapiens;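 note: growth inhibition of human ES6 cells, read out with a cell viability assay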
Description: SANGER: Inhibition of human ES6 cell growth in a cell viability assay.

GCIY = type: functional, cell-based, Homo sapiens; settings: Homo sapiens, GCIY;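 note: growth inhibition of the human GCIY cell line, read out by a cell viability assay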
Description: SANGER: Inhibition of human GCIY cell growth in a cell viability assay.

HCC1187 = type: functional, cell-based, Homo sapiens; settings: Homo sapiens, HCC1187;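 note: growth inhibition of HCC1187 cells, read out with a cell viability assay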
Description: SANGER: Inhibition of human HCC1187 cell growth in a cell viability assay.

HCC2157 = type: functional, cell-based, Homo sapiens; settings: Homo sapiens, HCC2157;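 note: growth inhibition of the cancer cell line, read out as cell viability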
Description: SANGER: Inhibition of human HCC2157 cell growth in a cell viability assay.

HDLM-2 = type: functional, cell-based, Homo sapiens; settings: Homo sapiens, HDLM-2;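 note: cell viability assay measuring suppression of HDLM-2 proliferation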
Description: SANGER: Inhibition of human HDLM-2 cell growth in a cell viability assay.

HT-144 = type: functional, cell-based, Homo sapiens; settings: Homo sapiens, HT-144
Description: SANGER: Inhibition of human HT-144 cell growth in a cell viability assay.

KARPAS-299 = type: functional, cell-based, Homo sapiens; settings: Homo sapiens, KARPAS-299
Description: SANGER: Inhibition of human KARPAS-299 cell growth in a cell viability assay.

LB831-BLC = type: functional, cell-based, Homo sapiens; settings: Homo sapiens, LB831-BLC;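 note: growth inhibition of LB831-BLC cells, read out with a cell viability assay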
Description: SANGER: Inhibition of human LB831-BLC cell growth in a cell viability assay.

LS-123 = type: functional, cell-based, Homo sapiens; settings: Homo sapiens, LS-123
Description: SANGER: Inhibition of human LS-123 cell growth in a cell viability assay.

LS-513 = type: functional, cell-based, Homo sapiens; settings: Homo sapiens, LS-513
Description: SANGER: Inhibition of human LS-513 cell growth in a cell viability assay.

MC116 = type: functional, cell-based, Homo sapiens; settings: Homo sapiens, MC116;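 note: growth inhibition of MC116 cells, read out with a cell viability assay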
Description: SANGER: Inhibition of human MC116 cell growth in a cell viability assay.

MOLT-4 = type: functional, cell-based, Homo sapiens; settings: Homo sapiens, MOLT-4;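 note: growth inhibition of MOLT-4 cells, determined with a cell viability readout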
Description: SANGER: Inhibition of human MOLT-4 cell growth in a cell viability assay.

MZ1-PC = type: functional, cell-based, Homo sapiens; settings: Homo sapiens, MZ1-PC;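 note: cell viability assay measuring growth inhibition of human MZ1-PC cells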
Description: SANGER: Inhibition of human MZ1-PC cell growth in a cell viability assay.

NB10 = type: functional, cell-based, Homo sapiens; settings: Homo sapiens, NB10;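 note: growth inhibition of NB10 cells, read out by a cell viability assay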
Description: SANGER: Inhibition of human NB10 cell growth in a cell viability assay.

NCI-H1770 = type: functional, cell-based, Homo sapiens; settings: Homo sapiens, NCI-H1770;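 note: growth inhibition of NCI-H1770 cells determined with a viability readout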
Description: SANGER: Inhibition of human NCI-H1770 cell growth in a cell viability assay.

NCI-H2126 = type: functional, cell-based, Homo sapiens; settings: Homo sapiens, NCI-H2126;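 note: growth inhibition of the cancer cell line, determined with a cell viability readout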
Description: SANGER: Inhibition of human NCI-H2126 cell growth in a cell viability assay.

NCI-H23 = type: functional, cell-based, Homo sapiens; settings: Homo sapiens, NCI-H23;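 note: cell viability assay measuring growth inhibition of NCI-H23 cells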
Description: SANGER: Inhibition of human NCI-H23 cell growth in a cell viability assay.

NCI-H747 = type: functional, cell-based, Homo sapiens; settings: Homo sapiens, NCI-H747;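 note: growth inhibition of human NCI-H747 cells, read out by a cell viability assay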
Description: SANGER: Inhibition of human NCI-H747 cell growth in a cell viability assay.

NCI-H82 = type: functional, cell-based, Homo sapiens; settings: Homo sapiens, NCI-H82;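 note: growth inhibition of NCI-H82 cells, measured with a cell viability readout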
Description: SANGER: Inhibition of human NCI-H82 cell growth in a cell viability assay.

NTERA-2-cl-D1 = type: functional, cell-based, Homo sapiens; settings: Homo sapiens, NTERA-2-cl-D1;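 note: inhibition of cell growth, measured with a cell viability assay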
Description: SANGER: Inhibition of human NTERA-S-cl-D1 cell growth in a cell viability assay.

P30-OHK = type: functional, cell-based, Homo sapiens; settings: Homo sapiens, P30-OHK;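 note: growth inhibition of the P30-OHK cell line, read out with a cell viability assay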
Description: SANGER: Inhibition of human P30-OHK cell growth in a cell viability assay.

QIMR-WIL = type: functional, cell-based, Homo sapiens; settings: Homo sapiens, QIMR-WIL;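 note: growth inhibition of QIMR-WIL cells, read out with a cell viability assay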
Description: SANGER: Inhibition of human QIMR-WIL cell growth in a cell viability assay.

RXF 393 = type: functional, cell-based, Homo sapiens; settings: Homo sapiens, RXF 393;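 note: growth inhibition of human RXF 393 cells, read out with a cell viability assay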
Description: SANGER: Inhibition of human RXF393 cell growth in a cell viability assay.

SCH = type: functional, cell-based, Homo sapiens; settings: Homo sapiens, SCH;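 note: growth inhibition of human SCH cells, read out in a cell viability assay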
Description: SANGER: Inhibition of human SCH cell growth in a cell viability assay.

SF-539 = type: functional, cell-based, Homo sapiens; settings: Homo sapiens, SF-539;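 note: Read-out is a cell viability assay, with IC50 reflecting inhibition of cell growth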
Description: SANGER: Inhibition of human SF539 cell growth in a cell viability assay.

SK-PN-DW = type: functional, cell-based, Homo sapiens; settings: Homo sapiens, SK-PN-DW;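 note: growth inhibition measured with a viability assay on these cells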
Description: SANGER: Inhibition of human SK-PN-DW cell growth in a cell viability assay.

SNB-75 = type: functional, cell-based, Homo sapiens; settings: Homo sapiens, SNB-75;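 note: cell viability assay measuring growth inhibition of human SNB-75 cells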
Description: SANGER: Inhibition of human SNB75 cell growth in a cell viability assay.

A3-KAW = type: functional, cell-based, Homo sapiens; settings: Homo sapiens, A3-KAW;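 note: growth inhibition of human A3-KAW cells, read out with a cell viability assay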
Description: SANGER: Inhibition of human A3-KAW cell growth in a cell viability assay.

ACN = type: functional, cell-based, Homo sapiens; settings: Homo sapiens, ACN;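 note: growth inhibition of the human ACN cell line, read out via cell viability testing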
Description: SANGER: Inhibition of human ACN cell growth in a cell viability assay.

BB30-HNC = type: functional, cell-based, Homo sapiens; settings: Homo sapiens, BB30-HNC;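 note: growth inhibition of the cultured cell line, read out by a cell viability assay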
Description: SANGER: Inhibition of human BB30-HNC cell growth in a cell viability assay.

TE-10 = type: functional, cell-based, Homo sapiens; settings: Homo sapiens, TE-10;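 note: growth inhibition of TE-10 cells, measured by a cell viability assay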
Description: SANGER: Inhibition of human TE-10 cell growth in a cell viability assay.

TE-11 = type: functional, cell-based; settings: Homo sapiens;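 note: growth inhibition of human TE-11 cells, read out by a cell viability assay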
Description: SANGER: Inhibition of human TE-11 cell growth in a cell viability assay.

TE-12 = type: functional, cell-based, Homo sapiens; settings: Homo sapiens, TE-12;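 note: growth inhibition of TE-12 cells, read out by a cell viability assay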
Description: SANGER: Inhibition of human TE-12 cell growth in a cell viability assay.

TE-5 = type: functional, cell-based, Homo sapiens; settings: Homo sapiens, TE-5;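 note: inhibition of cell growth, read out by a cell viability assay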
Description: SANGER: Inhibition of human TE-5 cell growth in a cell viability assay.

TE-8 = type: functional, cell-based, Homo sapiens; settings: Homo sapiens, TE-8;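 note: growth inhibition of TE-8 cells, measured with a cell viability readout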
Description: SANGER: Inhibition of human TE-8 cell growth in a cell viability assay.

SMILES: O=C(NCCCNc1nc(Nc2cccc(NC(=O)N3CCCC3)c2)ncc1I)c1cccs1 [BX-795]
- IC50 (COLO-800): 2.05 µM
- IC50 (COLO-824): > 5 µM
- IC50 (CW-2): > 5 µM
- IC50 (Calu-6): > 5 µM
- IC50 (D-247MG): 3.2 µM
- IC50 (DOHH-2): 1.46 µM
- IC50 (DU-4475): 1.29 µM
- IC50 (EKVX): > 5 µM
- IC50 (EM-2): 2.35 µM
- IC50 (ES4): > 5 µM
- IC50 (ES5): 1.19 µM
- IC50 (ES6): > 5 µM
- IC50 (GCIY): > 5 µM
- IC50 (HCC1187): 2.9 µM
- IC50 (HCC2157): > 5 µM
- IC50 (HDLM-2): > 5 µM
- IC50 (HT-144): > 5 µM
- IC50 (KARPAS-299): > 5 µM
- IC50 (LB831-BLC): > 5 µM
- IC50 (LS-123): > 5 µM
- IC50 (LS-513): > 5 µM
- IC50 (MC116): > 5 µM
- IC50 (MOLT-4): 1.03 µM
- IC50 (MZ1-PC): > 5 µM
- IC50 (NB10): 4.23 µM
- IC50 (NCI-H1770): > 5 µM
- IC50 (NCI-H2126): > 5 µM
- IC50 (NCI-H23): > 5 µM
- IC50 (NCI-H747): > 5 µM
- IC50 (NCI-H82): > 5 µM
- IC50 (NTERA-2-cl-D1): 1.08 µM
- IC50 (P30-OHK): 0.496 µM
- IC50 (QIMR-WIL): 2.29 µM
- IC50 (RXF 393): 3.41 µM
- IC50 (SCH): > 5 µM
- IC50 (SF-539): 3.74 µM
- IC50 (SK-PN-DW): > 5 µM
- IC50 (SNB-75): > 5 µM
- IC50 (A3-KAW): 0.731 µM
- IC50 (ACN): > 5 µM
- IC50 (BB30-HNC): > 5 µM
- IC50 (TE-10): > 5 µM
- IC50 (TE-11): 1.65 µM
- IC50 (TE-12): > 5 µM
- IC50 (TE-5): > 5 µM
- IC50 (TE-8): 3.55 µM

SMILES: CS(=O)(=O)N1CCN(Cc2cc3nc(-c4cccc5[nH]ncc45)nc(N4CCOCC4)c3s2)CC1 [PICTILISIB]
- IC50 (COLO-800): > 4 µM
- IC50 (COLO-824): > 4 µM
- IC50 (CW-2): > 4 µM
- IC50 (Calu-6): > 4 µM
- IC50 (D-247MG): > 4 µM
- IC50 (DOHH-2): > 4 µM
- IC50 (DU-4475): > 4 µM
- IC50 (EKVX): 1.01 µM
- IC50 (EM-2): 2.51 µM
- IC50 (ES4): 0.64 µM
- IC50 (ES5): 0.0502 µM
- IC50 (ES6): > 4 µM
- IC50 (GCIY): 0.434 µM
- IC50 (HCC1187): > 4 µM
- IC50 (HCC2157): 2.33 µM
- IC50 (HDLM-2): 0.949 µM
- IC50 (HT-144): > 4 µM
- IC50 (KARPAS-299): > 4 µM
- IC50 (LB831-BLC): > 4 µM
- IC50 (LS-123): > 4 µM
- IC50 (LS-513): > 4 µM
- IC50 (MC116): > 4 µM
- IC50 (MOLT-4): 0.624 µM
- IC50 (MZ1-PC): > 4 µM
- IC50 (NB10): > 4 µM
- IC50 (NCI-H1770): 0.124 µM
- IC50 (NCI-H2126): > 4 µM
- IC50 (NCI-H23): > 4 µM
- IC50 (NCI-H747): > 4 µM
- IC50 (NCI-H82): > 4 µM
- IC50 (P30-OHK): 0.731 µM
- IC50 (QIMR-WIL): 0.865 µM
- IC50 (RXF 393): > 4 µM
- IC50 (SCH): > 4 µM
- IC50 (SF-539): > 4 µM
- IC50 (SK-PN-DW): > 4 µM
- IC50 (SNB-75): 2.02 µM
- IC50 (A3-KAW): > 4 µM
- IC50 (ACN): > 4 µM
- IC50 (BB30-HNC): > 4 µM
- IC50 (TE-10): > 4 µM
- IC50 (TE-11): > 4 µM
- IC50 (TE-12): > 4 µM
- IC50 (TE-5): > 4 µM
- IC50 (TE-8): 3.48 µM
